IC50 data for twelve molecules are collected here from patent US7977345B2, “c-MET modulators and method of use” (Exelixis, Inc., priority 2004, dated 2011).

Bounds are passed on as bounds.

Holding throughout (type): biochemical
The target in test [1] is human c-Met kinase domain P948-S1343 (Homo sapiens, UniProt P08581). Kind of test: c-Met Luciferase-Coupled Chemiluminescent Kinase assay (LCCA). Conditions: 1 μM ATP, 1 μM poly-EY, 10 nM c-Met; read-out: c-Met inhibition IC50. The protocol:
(§1) Kinase activity and compound inhibition are investigated using one or more of the three assay formats described below. The ATP concentrations for each assay are selected to be close to the Michaelis-Menten constant (KM) for each individual kinase. Dose-response experiments are performed at 10 different inhibitor concentrations in a 384-well plate format. The data are fitted to the following four-parameter equation: Y=Min+(Max−Min)/(1+(X/IC50)^H) where Y is the observed signal, X is the inhibitor concentration, Min is the background signal in the absence of enzyme (0% enzyme activity), Max is the signal in the absence of inhibitor (100% enzyme activity), IC50 is the inhibitor concentration at 50% enzyme inhibition and H represents the empirical Hill's slope to measure the cooperativity. Typically H is close to unity. c-Met Assay
c-Met biochemical activity was assessed using a Luciferase-Coupled Chemiluminescent Kinase assay (LCCA) format as described above. Again, kinase activity was measured as the percent ATP remaining following the kinase reaction. Remaining ATP was detected by luciferase-luciferin-coupled chemiluminescence. Specifically, the reaction was initiated by mixing test compounds, 1 μM ATP, 1 μM poly-EY and 10 nM c-Met (baculovirus expressed human c-Met kinase domain P948-S1343) in a 20 uL assay buffer (20 mM Tris-HCL pH7.5, 10 mM MgCl2, 0.02% Triton X-100, 100 mM DTT, 2 mM MnCl2). The mixture is incubated at ambient temperature for 2 hours after which 20 uL luciferase-luciferin mix is added and the chemiluminescent signal read using a Wallac Victor^2 reader. The luciferase-luciferin mix consists of 50 mM HEPES, pH 7.8, 8.5 ug/mL oxalic acid (pH 7.8), 5 (or 50) mM DTT, 0.4% Triton X-100, 0.25 mg/mL coenzyme A, 63 uM AMP, 28 ug/mL luciferin and 40,000 units of light/mL luciferase.

For test [2], the target named is T1, human KDR kinase domain D807-V1356 (Homo sapiens, UniProt P35968).
T1 construct: baculovirus expressed human KDR kinase domain D807-V1356; made in house
Kind of test: KDR Luciferase-Coupled Chemiluminescent Kinase assay (LCCA). Conditions: 3 μM ATP, 1.6 μM poly-EY, 5 nM KDR; read-out: KDR inhibition IC50. The protocol: as §1
KDR biochemical activity was assessed using a Luciferase-Coupled Chemiluminescent Kinase assay (LCCA) format. Kinase activity was measured as the percent ATP remaining following the kinase reaction. Remaining ATP was detected by luciferase-luciferin-coupled chemiluminescence. Specifically, the reaction was initiated by mixing test compounds, 3 μM ATP, 1.6 μM poly-EY and 5 nM KDR (baculovirus expressed human KDR kinase domain D807-V1356) in a 20 uL assay buffer (20 mM Tris-HCL pH7.5, 10 mM MgCl2, 0.01% Triton X-100, 1 mM DTT, 3 mM MnCl2). The mixture is incubated at ambient temperature for 4 hours after which 20 uL luciferase-luciferin mix is added and the chemiluminescent signal read using a Wallac Victor^2 reader. The luciferase-luciferin mix consists of 50 mM HEPES, pH 7.8, 8.5 ug/mL oxalic acid (pH 7.8), 5 (or 50) mM DTT, 0.4% Triton X-100, 0.25 mg/mL coenzyme A, 63 uM AMP, 28 ug/mL luciferin and 40,000 units of light/mL luciferase.

For test [3], the target named is T2, human Flt-3 kinase domain R571-S993 (Homo sapiens, UniProt P36888).
T2 construct: baculovirus expressed human Flt-3 kinase domain R571-S993; made in house
T2 sequence (P36888 571-993): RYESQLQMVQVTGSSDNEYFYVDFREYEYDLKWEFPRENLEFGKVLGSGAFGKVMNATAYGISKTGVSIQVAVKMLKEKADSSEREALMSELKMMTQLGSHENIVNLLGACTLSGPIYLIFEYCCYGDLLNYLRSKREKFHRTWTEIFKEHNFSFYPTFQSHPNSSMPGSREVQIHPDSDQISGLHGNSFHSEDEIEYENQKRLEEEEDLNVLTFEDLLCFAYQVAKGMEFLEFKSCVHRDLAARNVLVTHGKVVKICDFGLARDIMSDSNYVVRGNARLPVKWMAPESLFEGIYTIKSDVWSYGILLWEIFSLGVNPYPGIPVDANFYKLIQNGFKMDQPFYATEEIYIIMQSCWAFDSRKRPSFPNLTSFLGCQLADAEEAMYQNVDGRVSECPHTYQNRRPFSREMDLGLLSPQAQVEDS
The experiment in a line: flt-3 Luciferase-Coupled Chemiluminescent Kinase assay (LCCA). Conditions: 5 μM ATP, 3 μM poly-EY, 5 nM Flt-3; read-out: flt-3 inhibition IC50. On the procedure: as §1
Biochemical activity for flt-3 was assessed using a Luciferase-Coupled Chemiluminescent Kinase assay (LCCA) format. Kinase activity was measured as the percent ATP remaining following the kinase reaction. Remaining ATP was detected by luciferase-luciferin-coupled chemiluminescence. Specifically, the reaction was initiated by mixing test compounds, 5 μM ATP, 3 μM poly-EY and 5 nM Flt-3 (baculovirus expressed human Flt-3 kinase domain R571-S993) in a 20 uL assay buffer (20 mM Tris-HCL pH7.5, 10 mM MgCl2, 0.01% Triton X-100, 1 mM DTT, 2 mM MnCl2). The mixture is incubated at ambient temperature for 3 hours after which 20 uL luciferase-luciferin mix is added and the chemiluminescent signal read using a Wallac Victor^2 reader. The luciferase-luciferin mix consists of 50 mM HEPES, pH 7.8, 8.5 ug/mL oxalic acid (pH 7.8), 5 (or 50) mM DTT, 0.4% Triton X-100, 0.25 mg/mL coenzyme A, 63 uM AMP, 28 ug/mL luciferin and 40,000 units of light/mL luciferase.

Chain of human c-Met kinase domain P948-S1343 (P08581 1011-1367 limits assumed): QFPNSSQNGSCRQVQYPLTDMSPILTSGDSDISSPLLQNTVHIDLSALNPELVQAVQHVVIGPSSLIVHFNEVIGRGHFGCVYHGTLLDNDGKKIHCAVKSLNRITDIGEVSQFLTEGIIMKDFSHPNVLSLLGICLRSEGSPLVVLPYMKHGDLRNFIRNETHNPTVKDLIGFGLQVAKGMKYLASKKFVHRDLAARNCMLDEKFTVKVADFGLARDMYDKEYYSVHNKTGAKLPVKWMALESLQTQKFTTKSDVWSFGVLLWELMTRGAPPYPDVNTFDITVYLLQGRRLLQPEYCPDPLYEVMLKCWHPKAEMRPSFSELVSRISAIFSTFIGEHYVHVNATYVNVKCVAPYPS
T1 sequence (P35968 807-1356): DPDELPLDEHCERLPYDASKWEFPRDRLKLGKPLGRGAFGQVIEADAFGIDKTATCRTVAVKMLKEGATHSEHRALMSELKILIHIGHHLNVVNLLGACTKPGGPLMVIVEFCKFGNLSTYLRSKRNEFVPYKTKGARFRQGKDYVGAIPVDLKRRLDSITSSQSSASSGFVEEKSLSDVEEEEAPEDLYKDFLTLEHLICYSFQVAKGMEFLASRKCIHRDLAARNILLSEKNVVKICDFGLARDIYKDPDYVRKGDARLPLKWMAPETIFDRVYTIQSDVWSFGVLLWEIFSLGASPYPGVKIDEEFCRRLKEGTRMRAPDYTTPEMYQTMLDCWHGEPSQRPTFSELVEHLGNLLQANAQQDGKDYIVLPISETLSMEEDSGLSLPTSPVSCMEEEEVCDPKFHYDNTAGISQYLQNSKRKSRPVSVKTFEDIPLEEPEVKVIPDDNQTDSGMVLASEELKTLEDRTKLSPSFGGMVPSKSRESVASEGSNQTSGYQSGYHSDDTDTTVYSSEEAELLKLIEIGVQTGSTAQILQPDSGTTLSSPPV

With `O=C(Cc1ccccc1)NC(=S)Nc1ccc(Oc2ncnc3c2cnn3C2CCCCO2)cc1` (stereo not shown) [Entry 5, 2-phenyl-N-{[(4-{[1-(tetrahydro-2H-pyran-2-yl)-1H-pyrazolo[3,4-d]pyrimidin-4-yl]oxy}phenyl)amino]carbonothioyl}acetamide], the concentration for half-maximal inhibition (IC50) in test [1] and in test [2] was above 500 nM each time.

With `O=C(Cc1ccccc1)NC(=S)Nc1ccc(Oc2ncnc3c2ncn3C2CCCCO2)cc1` (stereo not shown) [Entry 9, 2-phenyl-N-{[(4-{[9-(tetrahydro-2H-pyran-2-yl)-9H-purin-6-yl]oxy}phenyl)amino]carbonothioyl}acetamide], the concentration for half-maximal inhibition (IC50) in test [1] and in test [2] was above 500 nM throughout.

Consider `O=C(Nc1ccc(F)cc1)C1(C(=O)Nc2ccc(Oc3ncnc4[nH]ncc34)cc2)CC1` [Entry 6, N-(4-fluorophenyl)-N′-[4-(1H-pyrazolo[3,4-d]pyrimidin-4-yloxy)phenyl]cyclopropane-1,1-dicarboxamide], for which the IC50 was above 500 nM in test [1] and 50 to 500 nM in test [2].

For the molecule `O=C(Cc1ccccc1)NC(=S)Nc1ccc(Oc2ncnc3[nH]ncc23)cc1` [Entry 7, 2-phenyl-N-({[4-(1H-pyrazolo[3,4-d]pyrimidin-4-yloxy)phenyl]amino}carbonothioyl)acetamide], the IC50 in test [1] and in test [2] was above 500 nM throughout.

For the molecule `O=C(NCCN1CCOCC1)c1cc2c(Oc3ccc(NC(=O)C4(C(=O)Nc5ccc(F)cc5)CC4)cc3F)ncnc2[nH]1` [Entry 12, N-{3-fluoro-4-[(6-{[(2-morpholin-4-ylethyl)amino]carbonyl}-7H-pyrrolo[2,3-d]pyrimidin-4-yl)oxy]phenyl}-N′-(4-fluorophenyl)cyclopropane-1,1-dicarboxamide], the half-inhibitory concentration (IC50) in test [1], in test [2] and in test [3] was below 50 nM each time.

`O=C(Nc1ccc(F)cc1)C1(C(=O)Nc2ccc(Oc3ncnc4c3cnn4C3CCCCO3)cc2)CC1` (stereo not shown) [Entry 4, N-(4-fluorophenyl)-N′-(4-{[1-(tetrahydro-2H-pyran-2-yl)-1H-pyrazolo[3,4-d]pyrimidin-4-yl]oxy}phenyl)cyclopropane-1,1-dicarboxamide]: the half-maximal inhibitory concentration (IC50) in test [1] and in test [2] was above 500 nM throughout.

On to `O=C(Nc1ccc(F)cc1)C1(C(=O)Nc2ccc(Oc3ncnc4c3ncn4C3CCCCO3)cc2)CC1` (stereo not shown) [Entry 8, N-(4-fluorophenyl)-N′-(4-{[9-(tetrahydro-2H-pyran-2-yl)-9H-purin-6-yl]oxy}phenyl)cyclopropane-1,1-dicarboxamide], for which the half-maximal inhibitory concentration (IC50) in test [1] and in test [2] was above 500 nM in each case.

As to `O=C(Cc1ccccc1)NC(=S)Nc1ccc(Oc2ncnc3[nH]cnc23)cc1` [Entry 11, 2-phenyl-N-({[4-(9H-purin-6-yloxy)phenyl]amino}carbonothioyl)acetamide], the concentration for half-maximal inhibition (IC50) in test [1] and in test [2] was above 500 nM in each case.

As for `O=C(Cc1ccccc1)NC(=S)Nc1ccc(Oc2ncnc3[nH]ccc23)c(F)c1` [Entry 3, N-({[3-fluoro-4-(7H-pyrrolo[2,3-d]pyrimidin-4-yloxy)phenyl]amino}carbonothioyl)-2-phenylacetamide], the IC50 in test [1] was below 50 nM; in test [2] it was 50 to 500 nM; in test [3] it was above 500 nM.

On to `O=C(Nc1ccc(F)cc1)C1(C(=O)Nc2ccc(Oc3ncnc4[nH]cnc34)cc2)CC1` [Entry 10, N-(4-fluorophenyl)-N′-[4-(9H-purin-6-yloxy)phenyl]cyclopropane-1,1-dicarboxamide], for which the half-maximal inhibitory concentration (IC50) in test [1] and in test [2] was above 500 nM in each case.

Consider `O=C(Nc1ccc(F)cc1)C1(C(=O)Nc2ccc(Oc3ncnc4[nH]ccc34)c(F)c2)CC1` [Entry 2, N-(4-fluorophenyl)-N′-[3-fluoro-4-(7H-pyrrolo[2,3-d]pyrimidin-4-yloxy)phenyl]cyclopropane-1,1-dicarboxamide], for which the IC50 was below 50 nM in test [1], below 50 nM in test [2] and 50 to 500 nM in test [3].

Turning to `O=C(CC(=O)Nc1ccc(Oc2ncnc3[nH]ccc23)c(F)c1)Nc1ccc(F)cc1` [Entry 1, N-(4-fluorophenyl)-N′-[3-fluoro-4-(7H-pyrrolo[2,3-d]pyrimidin-4-yloxy)phenyl]propanediamide], the figures for the half-maximal inhibitory concentration (IC50) in test [1], in test [2] and in test [3] were 50 to 500 nM, 50 to 500 nM and below 50 nM, respectively.

What is called IC50 is the point on the concentration scale where inhibition reaches its midpoint.
